Structures are written as SMILES.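 Compound exposure: 48 hours, 5 concentrations, 96-well plates. At the GI50, growth is halved. Definition used: TGI = concentration required for complete inhibition of growth.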

Holding throughout (assay): growth of human tumour cells (NCI), 48 h
Experiment [1] relates to CAKI-1 renal.
Experiment [2] deals with HL-60(TB) leukemia.
Experiment [3] has as its system KM12 colon.
Experiment [4] has as its system MDA-MB-435.
The subject of experiment [5] is NCI-H460 lung.
The test system of experiment [6] is NCI-H522 lung.
Experiment [7] has as its system NCI/ADR-RES ovarian.
Experiment [8] concerns OVCAR-8 ovarian.
For experiment [9], the system named is SF-295 CNS.
Experiment [10] deals with UO-31 renal.

Take `COc1cccc(/C=N/n2c(Cc3ccc(Cl)cc3)n[nH]c2=O)c1`: the TGI in experiment [1] was more than 81.9 µM; in [2] it was more than 100 µM; in [3], more than 100 µM; in [4], more than 100 µM; in experiment [5] it was more than 100 µM; in experiment [6] it was 50.6 µM. Besides, the TGI in experiment [7] is more than 88.7 µM; in [8] it was 36.7 µM; in experiment [9] it was 35.4 µM; in experiment [10], more than 100 µM.

Regarding `O=C(O)C(CO)NC(=O)C1C(C(=O)O)C(c2ccccc2[N+](=O)[O-])C=C(c2ccco2)N1c1ccncc1` (stereo not given), the TGI in experiment [1] was 24.3 µM; in [2] it was more than 100 µM; in experiment [3], 3.35 µM; in [4] it was 16.8 µM; in [5], 18.5 µM; in [6] it was 19 µM. Moreover, the TGI in experiment [7] amounted to 59 µM; in experiment [8], 31 µM; in [9] it was 19 µM; in experiment [10], 10.4 µM.

For `CC(C)(CN1CCCCC1)C(=O)/C=C/c1c(Cl)cccc1Cl`, the TGI in experiment [1] was determined as 2.78 µM; in experiment [2] it was 4.37 µM; in experiment [3], 2.36 µM; in experiment [4] it was 2.85 µM; in [5] it was 3.86 µM; in experiment [6], 0.913 µM. In addition, the TGI in [7] came to 5.09 µM; in [8] it was 9.21 µM; in experiment [9] it was 7.05 µM; in [10] it was 2.27 µM.

With `Cc1csc2n(C)c(=O)c3ccccc3[n+]12`, the TGI in experiment [1], in experiment [2], in [3], in [4], in experiment [5] and in [6] was more than 100 µM in each case. In addition, the TGI in [7], in experiment [8], in experiment [9] and in experiment [10] was more than 100 µM each time.

For `OCCNc1nc2c(N3CCCC3)nc(N3CCNCC3)nc2nc1NCc1ccccc1`, the TGI in [1] was 31.4 µM; in experiment [2], 32.8 µM; in [3], 25.5 µM; in [4], 25.1 µM; in experiment [5] it was 29.9 µM; in experiment [6], 30.7 µM. Moreover, the TGI in experiment [7] was more than 100 µM; in experiment [8], 30.5 µM; in experiment [9], 32.7 µM; in [10], 28.7 µM.

`COc1cc(C)cc(OC)c1/C=C/C(=O)O`: the TGI in experiment [1], in [2], in [3], in experiment [4], in experiment [5] and in [6] was more than 100 µM each time. Further, the TGI in [7], in experiment [8], in experiment [9] and in experiment [10] was more than 100 µM in each case.

Consider `Cc1ccc(CC(=O)Nc2ccc(NC(=O)CNC(=O)/C=C/c3ccc(-c4ccccc4)cc3)cc2C(=O)c2ccccc2)cc1`, for which the TGI in [1] worked out at 20.4 µM; in [2], 20.7 µM; in experiment [3], 14.5 µM; in experiment [4], 16.1 µM; in experiment [5] it was 11.1 µM; in experiment [6], 18.4 µM. The TGI worked out at 29.8 µM in experiment [7], 3.27 µM in experiment [8], 4.86 µM in [9] and 24.7 µM in [10].

For `CCOC(=O)O/N=C1/C(c2c(O)[nH]c3ccccc23)=Nc2ccccc21`, the TGI in experiment [1] came to 14.5 µM; in experiment [2] it was 24.1 µM; in experiment [3] it was 13.8 µM; in [4] it was 17.3 µM; in [5], 15.8 µM; in [6], 30.2 µM. The TGI in experiment [7] came out at 78.6 µM; in experiment [8] it was 30.8 µM; in [9], 48.8 µM; in experiment [10], 40.6 µM.

As for `COC1CCC(n2c([C@@H]3CCCC(=O)N3c3ccc(F)c(F)c3)nc3cc(-c4c(C)noc4C)ccc32)CC1` (stereo not given in full), the GI50 in experiment [1] was 0.64 µM; in [2], 0.851 µM; in [3], 14 µM; in [4] it was 8.01 µM; in experiment [5], 26.3 µM; in [6] it was 2.93 µM. The GI50 is 13.5 µM in experiment [7], 10.2 µM in [8], 6.72 µM in experiment [9] and 1.64 µM in experiment [10]. For the same molecule, the TGI in experiment [1] was 12.7 µM; in experiment [2], 36.4 µM; in experiment [3], 30.4 µM; in experiment [4] it was 82.7 µM; in [5], more than 100 µM; in experiment [6], 19.8 µM. Also, the TGI in experiment [7] turned out to be 30 µM; in experiment [8], 40.8 µM; in experiment [9], 29 µM; in [10] it was 14.5 µM.

Regarding `CC1=CC(=O)/C(=C/N2CCNC2=S)C(=O)O1`, the TGI in [1], in [2], in experiment [3], in experiment [4], in [5] and in [6] was more than 100 µM throughout. Besides, the TGI in experiment [7], in [8], in [9] and in experiment [10] was more than 100 µM each time.

Take `S=C1CSc2c(cnc3ccccc23)N1`: the TGI in experiment [1], in [2], in experiment [3], in experiment [4], in experiment [5] and in [6] was more than 100 µM each time. Moreover, the TGI in experiment [7], in experiment [8], in experiment [9] and in [10] was more than 100 µM in each case.

Regarding `Cc1ccnc2sc3ccccc3c(=O)c12`, the TGI in [1] is 61.5 µM; in experiment [2], more than 100 µM; in [3] it was more than 100 µM; in experiment [4] it was more than 100 µM; in [5], more than 100 µM; in [6], 99.2 µM. Also, the TGI in experiment [7] is more than 100 µM; in experiment [8] it was more than 100 µM; in experiment [9] it was more than 100 µM; in [10], 81.8 µM.

Consider `CC(CN(C)C)C(=O)/C=C/c1ccc(Cl)c(Cl)c1` (stereo not given), for which the TGI in experiment [1] came out at 4.42 µM; in experiment [2], 4.46 µM; in experiment [3], 3.23 µM; in experiment [4], 3.33 µM; in experiment [5], 5.2 µM; in experiment [6] it was 3.24 µM. Further, the TGI came out at 79.6 µM in experiment [7], 2.85 µM in experiment [8], 12.9 µM in experiment [9] and 3.22 µM in experiment [10].

Regarding `O=C1C(CN2CCCC2)CCCC1CN1CCCC1` (stereo not given), the TGI worked out at 3.11 µM in experiment [1]; 0.445 µM in experiment [2]; 39.8 µM in experiment [3]; 7.43 µM in experiment [4]; 43.5 µM in [5]; 0.29 µM in experiment [6]. Besides, the TGI in experiment [7] is 18.9 µM; in experiment [8], 10.5 µM; in [9], more than 56.4 µM; in experiment [10] it was 2.31 µM.

In the case of `C/C(NC(=O)c1ccccc1)=C(/C(=O)c1ccccc1)[C@@H]1OC(C)(C)O[C@@H]1[C@H]1COC(C)(C)O1`, the TGI was more than 100 µM in [1]; 43.8 µM in experiment [2]; more than 100 µM in experiment [3]; 39.9 µM in [4]; 65.5 µM in experiment [5]; 36 µM in experiment [6]. Also, the TGI in experiment [7] is more than 100 µM; in [8] it was more than 100 µM; in experiment [9] it was more than 100 µM; in [10], 30.1 µM.

Take `CC(C)C(/C=C/c1ccccc1)=N\NC(=S)NN`: the TGI in experiment [1] was more than 100 µM; in [2], more than 100 µM; in experiment [3], more than 100 µM; in experiment [4], more than 100 µM; in experiment [5], more than 100 µM; in experiment [6] it was more than 89.3 µM. For the same molecule, the TGI in [7], in experiment [8], in experiment [9] and in [10] was more than 100 µM in each case.

`Clc1cccc(N=C/C=C/Nc2cccc(Cl)c2)c1`: the TGI is 65.1 µM in experiment [1]; 39.9 µM in [2]; 27.1 µM in [3]; 28.9 µM in [4]; 35.2 µM in experiment [5]; 29.3 µM in experiment [6]. Besides, the TGI in experiment [7] is 31.4 µM; in experiment [8], 38.9 µM; in experiment [9], 24.4 µM; in experiment [10], 34.2 µM.
